From publication PMC2441954, “Phase I pharmacokinetic and pharmacodynamic study of the prenyl transferase inhibitor AZD3409 in patients with advanced cancer” (British Journal of Cancer, 2008)
Read-outs that look alike come from different tables or passages of the source.

Experiment: Plasma pharmacokinetics (LC-MS/MS, noncompartmental) in phase I patients
Assay type: in vivo, human
Conditions: for Cmax / AUC: human, plasma, oral; for AUC: read-out: AUC0−τ
Description: Pharmacokinetic studies were performed in all patients. Ethylenediaminetetraacetic acid blood samples were collected during the first cycle: on day 1 before the first drug intake and 0.5, 1, 2, 4, 6, 8, 12 and 24 h after administration; on days 3, 8 and 15 before the morning drug intake and 2 h after administration; and on day 22 before the morning drug intake and 0.5, 1, 2, 4, 6, 8, 12 and 24 h after administration. Samples were immediately put on ice and centrifuged at 4°C for 10 min at 1500 g. The resulting plasma was stored at −70°C until analysis. Plasma samples of the last three patients were not measured as the study was stopped before analysis.
The total plasma concentrations of AZD3409 ester and AZD3409 acid were determined by LC–MS/MS. The plasma samples were treated with dithiothreitol to reduce any disulphide bonds. The sample pretreatment was based on protein precipitation with acidic acetonitrile. Isotopically labelled analogues were used as internal standards. The method has been validated regarding selectivity, accuracy, precision and stability in human plasma. The lower limit of quantification was 3 ng ml^−1 for both AZD3409 ester and AZD3409 acid, with a 50 μl sample volume.
The following PK parameters were determined, either by direct observation or by noncompartmental analysis (WinNonlin, version 5.0.1; Pharsight, Mountain View, CA, USA): the minimal plasma concentration (Cmin), the maximal plasma concentration (Cmax), the area under the curve within one dosing interval (AUC0−τ) and total plasma clearance (Cl/F). Correlations between dose and Cmax levels and between dose and AUC0−τ were analysed on day 1 using the nonparametric Spearman's ρ (Rs) correlation test. Accumulation was tested with an exact Wilcoxon's rank paired signed test. Linear measures mixed effects models were constructed with SAS (SAS Institute Inc., Cary, NC, USA) to determine the effect of the dose on the trough plasma concentrations of both metabolites. The daily dose, time (days), gender and age were considered to be a fixed effect, and the patient variable was considered to be a random effect. Owing to the distribution of the trough plasma concentration log transformation was applied.

[1] = 500 mg once daily, day 1, dose 500 (once daily), N=3, mean (SD)
[2] = 500 mg once daily, day 22, dose 500 (once daily), N=2, absolute values
[3] = 750 mg b.i.d., day 1, dose 750 b.i.d., N=8, mean (SD)
[4] = 750 mg b.i.d., day 22, dose 750 b.i.d., N=3, mean (SD)
[5] = 1000 mg once daily, day 1, dose 1000 (once daily), N=3, mean (SD)
[6] = 1000 mg once daily, day 22, dose 1000 (once daily), N=3, mean (SD)
[7] = 1250 mg b.i.d., day 1, dose 1250 b.i.d., N=6, mean (SD)
[8] = 1250 mg b.i.d., day 22, dose 1250 b.i.d., N=4, mean (SD)
[9] = 1500 mg b.i.d., day 1, dose 1500 b.i.d., N=2, absolute values
[10] = 1750 mg b.i.d., day 1, dose 1750 b.i.d., N=4, mean (SD)
[11] = 1750 mg b.i.d., day 22, dose 1750 b.i.d., N=1

CSCC[C@H](NC(=O)c1cc(NC[C@@H]2C[C@H](S)CN2)ccc1CCc1ccc(F)cc1)C(=O)OC(C)C [AZD3409 ester]
AUCester/AUCacid ratio (day 1): 2.5
Spearman correlation (Rs) between dose and AUC (day 1): 0.52
Spearman correlation (Rs) between dose and Cmax (day 1): 0.43
AUCester/AUCacid ratio (day 22): 2.0
Cl/F (day 22, dose 500 (once daily), N=2, absolute values): [263–308] l h^−1
Cl/F (day 22, dose 750 b.i.d., N=3, mean (SD)): 309 (151) l h^−1
Cl/F (day 22, dose 1000 (once daily), N=3, mean (SD)): 319 (172) l h^−1
Cl/F (day 22, dose 1250 b.i.d., N=4, mean (SD)): 474 (231) l h^−1
Cl/F (day 22, dose 1750 b.i.d., N=1): 1145 L/h
Ratio AUC0−τ day 22/day 1 (dose 500 (once daily), N=2, absolute values): [1.42–8.31]
Ratio AUC0−τ day 22/day 1 (dose 750 b.i.d., N=3, mean (SD)): 7.03 (8.46)
Ratio AUC0−τ day 22/day 1 (dose 1000 (once daily), N=3, mean (SD)): 1.54 (0.86)
Ratio AUC0−τ day 22/day 1 (dose 1250 b.i.d., N=4, mean (SD)): 1.28 (0.70)
Ratio AUC0−τ day 22/day 1 (dose 1750 b.i.d., N=1): 0.97
Cmax [1]: 82.1 ng/mL
AUC [1]: 395 ng·h/mL
Cmax [2]: 229 to 257 ng/mL
AUC [2]: 1230 to 1460 ng·h/mL
Cmax [3]: 245 ng/mL
AUC [3]: 1070 ng·h/mL
Cmax [4]: 298 ng/mL
AUC [4]: 1720 ng·h/mL
Cmax [5]: 318 ng/mL
AUC [5]: 1540 ng·h/mL
Cmax [6]: 296 ng/mL
AUC [6]: 1930 ng·h/mL
Cmax [7]: 338 ng/mL
AUC [7]: 1780 ng·h/mL
Cmax [8]: 366 ng/mL
AUC [8]: 2120 ng·h/mL
Cmax [9]: 227 to 315 ng/mL
AUC [9]: 1460 to 1630 ng·h/mL
Cmax [10]: 362 ng/mL
AUC [10]: 1690 ng·h/mL
Cmax [11]: 445 ng/mL
AUC [11]: 1100 ng·h/mL
